Assay results published in patent US20260250318A1, “COMPOSITIONS AND METHODS FOR CROSSING THE BLOOD BRAIN BARRIER” (VOYAGER THERAPEUTICS, INC., priority 2022, published 2026).

System: brains, heart, liver, muscle, and DRG of the NHPs
Assay: Maturation of TTM-001 and TTM-002 capsids, NGS enrichment in NHP tissues
Assay type: in vivo
Text: This Example describes maturation of the AAV9 capsid variants, TTM-001 (SEQ ID NO: 981 (amino acid) and 983 (DNA), comprising SEQ ID NO: 941 (encoded by SEQ ID NO: 942)) and TTM-002 (SEQ ID NO: 982 (amino acid) and 984 (DNA), comprising SEQ ID NO: […] (encoded by SEQ ID NO: 944)) in NHPs to further enhance their transduction and biodistribution in the central nervous system as well as other tissues, and evolve the AAV capsid variants to provide further cross-species compatibility. Two approaches were used to mature the TTM-001 and TTM-002 capsid sequences in order to randomize and mutate within and around the peptide insert comprised within loop IV of the capsid variant. […] In the first maturation approach, sets of three contiguous amino acids were randomized across the mutagenesis region in the TTM-001 and TTM-002 sequences, which spanned from position 450 to position 466, numbered according to SEQ ID NO: 981 and 982. In the second maturation approach, mutagenic primers were used to introduce point mutations at a low frequency, scattered across the mutagenesis region in the TTM-001 and TTM-002 sequences ranging from position 449 to position 466, numbered according to SEQ ID NO: 981 and 982. AAV capsid variants arising from each maturation approach for TTM-001 and TTM-002 were pooled together, for subsequent testing and characterization in NHPs.
The library of pooled matured AAV capsid variants generated using the first maturation approach and the second maturation approach for the TTM-001 and TTM-002 AAV capsid variants were injected into two NHPs. […] Following RNA recovery and RT-PCR amplification, a systematic NGS enrichment analysis was performed to calculate the fold enrichment ratio relative to an AAV9 control, and the peptides comprised within the variants were identified.
Following the RNA recovery and NGS analysis from the second maturation approach, approximately 680,000 capsid variants were identified. The 680,000 matured capsid variants were then filtered based on samples with a raw virus count greater than 10 and a coefficient of variance (CV) of less than 1, which was calculated for each peptide across the brain samples taken from the two NHPs. […] Using this filtering criteria, this led to approximately 64,000 matured capsid variants.

[1] = NHP DRG, NGS, relative to AAV9 control
[2] = NHP brain, NGS, relative to AAV9 control
[3] = NHP heart, NGS, relative to AAV9 control
[4] = NHP liver DNA, NGS, relative to AAV9 control
[5] = NHP liver RNA, NGS, TTM-001 and TTM-002 matured AAV capsid variants, relative to AAV9 control
[6] = NHP muscle, NGS, relative to AAV9 control
[7] = NGS fold-enrichment, DRG, NHP, relative to AAV9
[8] = NGS fold-enrichment, brain, NHP, relative to AAV9
[9] = NGS fold-enrichment, heart, NHP, relative to AAV9
[10] = NGS fold-enrichment, liver DNA, NHP, relative to AAV9
[11] = NGS fold-enrichment, liver RNA, NHP, relative to AAV9
[12] = NGS fold-enrichment, muscle, NHP, relative to AAV9

Row | Sequence | Fold Enrichment relative to AAV9, DRG (NHP) [1] [fold] | Fold Enrichment relative to AAV9, Brain (NHP) [2] [fold] | Fold Enrichment relative to AAV9, Heart (NHP) [3] [fold] | Fold Enrichment relative to AAV9, Liver DNA (NHP) [4] [fold] | Fold Enrichment relative to AAV9, Liver RNA (NHP) [5] [fold] | Fold Enrichment relative to AAV9, Muscle (NHP) [6] [fold] | Fold Enrichment relative to AAV9, DRG (NHP) [7] [fold] | Fold Enrichment relative to AAV9, Brain (NHP) [8] [fold] | Fold Enrichment relative to AAV9, Heart (NHP) [9] [fold] | Fold Enrichment relative to AAV9, Liver DNA (NHP) [10] [fold] | Fold Enrichment relative to AAV9, Liver RNA (NHP) [11] [fold] | Fold Enrichment relative to AAV9, Muscle (NHP) [12] [fold]
1 | KTINGSGSPHSCPQNQQT | 0.000 | 0.000 | 0.000 | 1.776 | 16.701 | 0.000 | – | – | – | – | – | –
2 | KTINGSGSPHSCQSNQQT | – | – | – | – | – | – | 0.000 | 0.000 | 0.000 | 1.468 | 10.631 | 0.000
3 | KTINGSGSPHSCSRNQQT | 0.000 | 0.000 | 0.000 | 4.293 | 40.372 | 0.000 | – | – | – | – | – | –
4 | KTINGSGSPHSFFGNQQT | 0.000 | 0.000 | 0.000 | 6.101 | 38.088 | 0.000 | – | – | – | – | – | –
5 | KTINGSGSPHSFPFNQQT | 0.000 | 0.000 | 0.000 | 4.693 | 38.584 | 0.000 | – | – | – | – | – | –
6 | KTINGSGSPHSFQINQQT | 0.000 | 0.308 | 1.568 | 0.269 | 17.418 | 0.000 | – | – | – | – | – | –
7 | KTINGSGSPHSFRPNQQT | 0.000 | 0.000 | 0.000 | 9.191 | 44.801 | 0.000 | – | – | – | – | – | –
8 | KTINGSGSPHSFRYNQQT | 0.000 | 0.000 | 0.000 | 4.148 | 21.097 | 0.000 | – | – | – | – | – | –
9 | KTINGSGSPHSFTCNQQT | 0.000 | 0.000 | 0.000 | 2.155 | 63.936 | 271.289 | – | – | – | – | – | –
10 | KTINGSGSPHSFTPNQQT | 0.000 | 0.000 | 0.000 | 1.036 | 24.227 | 0.000 | – | – | – | – | – | –
11 | KTINGSGSPHSFWSNQQT | 0.000 | 0.000 | 0.000 | 1.345 | 22.857 | 0.000 | – | – | – | – | – | –
12 | KTINGSGSPHSGACNQQT | 0.000 | 0.000 | 0.000 | 3.215 | 39.163 | 4733.916 | – | – | – | – | – | –
13 | KTINGSGSPHSGCQNQQT | 0.000 | 0.000 | 0.000 | 1.981 | 24.818 | 0.000 | – | – | – | – | – | –
14 | KTINGSGSPHSGKRNQQT | 0.000 | 0.000 | 0.000 | 5.396 | 35.120 | 0.000 | – | – | – | – | – | –
15 | KTINGSGSPHSKAARRQT | 0.000 | 0.000 | 0.000 | 6.633 | 19.998 | 0.000 | – | – | – | – | – | –
16 | KTINGSGSPHSKACISQT | 0.000 | 0.000 | 0.000 | 0.240 | 17.371 | 0.000 | – | – | – | – | – | –
17 | KTINGSGSPHSKACQFQT | 0.000 | 0.000 | 0.000 | 8.562 | 17.640 | 9.605 | – | – | – | – | – | –
18 | KTINGSGSPHSKACRLQT | 0.000 | 0.000 | 0.000 | 6.537 | 12.297 | 0.000 | – | – | – | – | – | –
19 | KTINGSGSPHSKACSRQT | 0.000 | 0.000 | 0.000 | 2.468 | 42.696 | 0.000 | – | – | – | – | – | –
20 | KTINGSGSPHSKAFSWQT | 0.000 | 0.000 | 0.000 | 1.805 | 51.304 | 0.000 | – | – | – | – | – | –
21 | KTINGSGSPHSKAFYIQT | 0.000 | 0.000 | 0.000 | 0.239 | 17.172 | 0.000 | – | – | – | – | – | –
22 | KTINGSGSPHSKAFYRQT | 0.000 | 0.000 | 0.000 | 3.577 | 77.541 | 0.000 | – | – | – | – | – | –
23 | KTINGSGSPHSKAHARQT | 0.000 | 0.000 | 0.000 | 1.800 | 17.075 | 0.000 | – | – | – | – | – | –
24 | KTINGSGSPHSKAKGWQT | – | – | – | – | – | – | 0.000 | 0.000 | 0.000 | 1.827 | 10.450 | 0.000
25 | KTINGSGSPHSKAKKVQT | – | – | – | – | – | – | 0.000 | 0.000 | 0.000 | 3.974 | 10.102 | 0.000
